Measured values from publication PMC9011347, “Small-Molecule Inhibitors Targeting Lipolysis in Human Adipocytes” (Journal of the American Chemical Society, 2022).

Experiments:
Test in all cases: Off-target lipid hydrolase assay, Expi293 lysates
Type in all cases: biochemical
[1] = molecular target: T1, PNPLA6 (Homo sapiens, UniProt Q8IY17); settings: NG-497 100 µM, substrate LPC
T1 construct: made in house; host or cells: Expi293 cells, lysate
Method: (§1) Fig. S3: Investigation of off-target effects of NG-497 on structurally and functionally related lipid hydrolases. (a) […]
(§2) NG-497, inhibited PNPLA1/CGI-58-dependent ω-O-acylceramide formation. (b-h) Enzymes were overexpressed in Expi293 cells and cell lysates were used as source of enzymatic activity. Cell lysates were incubated with the indicated substrates 1-oleoyl phosphatidylcholine (LPC), di-oleoyl phosphatidic acid (PA), di-octanoyl phosphatidylglycerol (PG), or para-nitrophenylvalerate (pNPV). Experiments were performed in the presence or absence of NG-497 (100 µM) and the formation of reaction products was monitored. Cell lysates of LacZ-transfected cells were used to detect basal cellular activity. As positive controls, enzymes were inactivated with lipase inhibitors Orlistat (40 µM), R-BEL (10 µM), KLH-45 (20 nM), HSLi (10 µM), or PMSF (10µM).
(§3) Data were calculated relative to the basal activity detected in LacZ-transfected controls. […]
(§4) LPL activity was inhibited using an anti-LPL antibody. All data are presented as mean ± S.D. Statistical significance was determined via ANOVA followed by Bonferroni post hoc test ( ***, p < 0.001).
(§5) (1 picture or pasted object on this page, not shown here) […]
(§6) 2-mercaptoethanol, 4% sodium dodecyl sulfate, 20% glycerin, bromophenol blue) at 98°C for 10 min. For detection of protein expression, anti-Xpress (Thermo Fisher Scientific #R910-25), anti-mouse-HRP Trueblot (Rockland #18-8817-33), and anti-FLAG HRP (MiliporeSigma #A8592) antibodies were used.
(§7) Analysis of toxicity in HepG2 hepatocytes. For LDH-based viability assays, HepG2 cells were seeded in 96-well plates in DMEM (Gibco) containing 100 IU/ml penicillin, 100 IU/ml streptomycin (MilliporeSigma), and 3% heat-inactivated FCS. […]
(§8) Serum stability of ATGL inhibitors. Inhibitors were incubated in 200 µl human serum for 0 and 3 h at 37°C and extracted in 1 ml MTBE/methanol (3/1, v/v) containing acetic acid/butylated hydroxytoluene (500nM). The extraction mixture was shaken at 1,400 x rpm for 1 h at RT and centrifuged for 10 min at 13,000 x rpm for phase separation. 700 µl of the upper, organic phase were collected, dried under a stream of nitrogen, and lipids resolved in 200 µl methanol/isopropanol/H2O (6/3/1), for UPLC- […]
(§9) Chromatographic separation was modified after Knittelfelder et al.2 using an AQUITY UPLC system (Waters Corporation, Milford, USA) equipped with a ZORBAX Eclipse XDB-C18- column (3 × 30 mm, 1.8 µm; Agilent Technologies, Santa Clara, USA) starting a 15 min gradient with 80% solvent A (water/methanol, 1/1, v/v) and 20% solvent B (2-propanol). Both solvents contained ammonium acetate (10 mM), formic acid (0.1 vol%) and phosphoric acid (8 µM) and the column was kept at 50°C. […]

[2] = molecular target: T2, PNPLA7 (Homo sapiens, UniProt Q6ZV29); settings: NG-497 100 µM, substrate LPC
T2 construct: made in house; host or cells: Expi293 cells, lysate
T2 sequence (Q6ZV29 whole entry): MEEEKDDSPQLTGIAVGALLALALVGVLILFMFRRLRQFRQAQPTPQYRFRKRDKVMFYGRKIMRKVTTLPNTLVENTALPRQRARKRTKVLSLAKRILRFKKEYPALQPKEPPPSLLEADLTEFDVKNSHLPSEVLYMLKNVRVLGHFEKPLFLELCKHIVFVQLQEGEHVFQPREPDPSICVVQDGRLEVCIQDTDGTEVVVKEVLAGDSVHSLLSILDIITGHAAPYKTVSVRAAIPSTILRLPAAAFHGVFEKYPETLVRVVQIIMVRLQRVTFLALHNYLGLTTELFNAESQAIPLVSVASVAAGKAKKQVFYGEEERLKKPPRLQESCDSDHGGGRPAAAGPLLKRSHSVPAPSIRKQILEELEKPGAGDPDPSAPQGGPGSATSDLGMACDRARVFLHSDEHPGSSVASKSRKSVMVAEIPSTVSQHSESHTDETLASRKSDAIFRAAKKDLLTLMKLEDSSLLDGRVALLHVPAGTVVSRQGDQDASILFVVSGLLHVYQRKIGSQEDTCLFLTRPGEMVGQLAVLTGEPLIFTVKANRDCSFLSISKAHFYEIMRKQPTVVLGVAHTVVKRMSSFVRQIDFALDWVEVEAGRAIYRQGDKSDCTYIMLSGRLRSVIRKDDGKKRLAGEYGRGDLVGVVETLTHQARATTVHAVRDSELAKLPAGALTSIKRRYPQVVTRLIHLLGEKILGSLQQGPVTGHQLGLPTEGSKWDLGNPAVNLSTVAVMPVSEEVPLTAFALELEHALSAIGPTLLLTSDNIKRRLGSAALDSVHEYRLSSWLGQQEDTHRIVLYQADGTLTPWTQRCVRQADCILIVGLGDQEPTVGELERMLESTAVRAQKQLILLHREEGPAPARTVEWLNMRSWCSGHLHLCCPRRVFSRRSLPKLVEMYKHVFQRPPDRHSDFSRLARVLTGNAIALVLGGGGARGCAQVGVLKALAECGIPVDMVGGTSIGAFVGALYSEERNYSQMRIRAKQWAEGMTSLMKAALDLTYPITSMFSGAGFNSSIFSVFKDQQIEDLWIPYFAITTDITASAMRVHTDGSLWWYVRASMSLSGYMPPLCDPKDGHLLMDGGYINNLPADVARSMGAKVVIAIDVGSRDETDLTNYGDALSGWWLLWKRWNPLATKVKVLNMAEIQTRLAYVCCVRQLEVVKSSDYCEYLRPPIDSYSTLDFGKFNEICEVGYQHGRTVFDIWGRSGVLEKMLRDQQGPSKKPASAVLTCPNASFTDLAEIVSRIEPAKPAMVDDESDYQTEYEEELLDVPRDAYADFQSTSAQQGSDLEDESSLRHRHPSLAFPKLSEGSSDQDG
Method: as §1, §2, §3, §4, §5, §6, §7, §8, §9

[3] = molecular target: T3, PNPLA8 (Homo sapiens, UniProt Q9NP80); settings: NG-497 100 µM, substrate PA
T3 construct: made in house; host or cells: Expi293 cells, lysate
T3 sequence (Q9NP80 whole entry): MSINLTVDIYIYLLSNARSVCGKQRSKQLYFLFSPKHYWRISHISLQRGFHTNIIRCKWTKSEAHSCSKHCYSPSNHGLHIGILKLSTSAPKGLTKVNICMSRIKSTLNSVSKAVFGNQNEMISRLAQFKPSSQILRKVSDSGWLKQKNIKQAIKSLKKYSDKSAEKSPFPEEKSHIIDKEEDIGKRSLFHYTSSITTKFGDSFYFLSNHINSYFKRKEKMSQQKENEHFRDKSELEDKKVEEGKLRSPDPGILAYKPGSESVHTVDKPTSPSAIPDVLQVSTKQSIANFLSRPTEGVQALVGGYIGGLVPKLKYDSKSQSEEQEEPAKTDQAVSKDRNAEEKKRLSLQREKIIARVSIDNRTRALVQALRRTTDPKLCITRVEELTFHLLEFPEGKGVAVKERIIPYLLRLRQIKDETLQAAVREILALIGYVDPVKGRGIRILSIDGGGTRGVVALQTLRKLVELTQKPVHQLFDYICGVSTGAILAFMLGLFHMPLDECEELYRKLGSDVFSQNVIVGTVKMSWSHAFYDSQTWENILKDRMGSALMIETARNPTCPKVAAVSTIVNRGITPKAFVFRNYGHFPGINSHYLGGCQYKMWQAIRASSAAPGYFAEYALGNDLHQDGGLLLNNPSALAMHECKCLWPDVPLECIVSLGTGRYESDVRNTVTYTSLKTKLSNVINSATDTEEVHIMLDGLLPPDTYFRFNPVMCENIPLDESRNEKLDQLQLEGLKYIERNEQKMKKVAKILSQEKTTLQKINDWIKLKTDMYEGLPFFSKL
Method: as §1, §2, §3, §4, §5, §6, §7, §8, §9

[4] = molecular target: T4, PNPLA9 (Homo sapiens, UniProt O60733); settings: NG-497 100 µM, substrate PG
T4 construct: made in house; host or cells: Expi293 cells, lysate
T4 sequence (O60733 whole entry): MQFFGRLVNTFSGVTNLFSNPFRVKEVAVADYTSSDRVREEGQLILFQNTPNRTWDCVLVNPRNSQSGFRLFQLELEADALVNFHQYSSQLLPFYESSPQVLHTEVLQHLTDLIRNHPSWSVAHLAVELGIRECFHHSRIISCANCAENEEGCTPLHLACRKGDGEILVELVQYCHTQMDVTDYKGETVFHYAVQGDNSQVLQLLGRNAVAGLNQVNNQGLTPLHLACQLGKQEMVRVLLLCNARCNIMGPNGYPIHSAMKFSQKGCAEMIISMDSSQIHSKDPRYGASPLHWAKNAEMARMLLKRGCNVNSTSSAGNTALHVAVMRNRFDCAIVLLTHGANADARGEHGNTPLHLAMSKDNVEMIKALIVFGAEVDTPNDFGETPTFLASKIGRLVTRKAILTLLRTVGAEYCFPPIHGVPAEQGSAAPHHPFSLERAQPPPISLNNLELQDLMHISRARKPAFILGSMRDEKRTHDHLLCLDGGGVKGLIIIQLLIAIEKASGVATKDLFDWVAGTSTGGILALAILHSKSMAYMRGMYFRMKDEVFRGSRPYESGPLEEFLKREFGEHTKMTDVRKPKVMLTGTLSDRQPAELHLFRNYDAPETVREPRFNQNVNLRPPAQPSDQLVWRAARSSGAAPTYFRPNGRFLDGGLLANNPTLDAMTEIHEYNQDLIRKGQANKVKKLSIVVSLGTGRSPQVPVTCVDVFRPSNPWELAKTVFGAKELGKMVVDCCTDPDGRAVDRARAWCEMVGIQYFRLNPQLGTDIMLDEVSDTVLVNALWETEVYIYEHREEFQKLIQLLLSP
Method: as §1, §2, §3, §4, §5, §6, §7, §8, §9

T1 sequence (Q8IY17 whole entry): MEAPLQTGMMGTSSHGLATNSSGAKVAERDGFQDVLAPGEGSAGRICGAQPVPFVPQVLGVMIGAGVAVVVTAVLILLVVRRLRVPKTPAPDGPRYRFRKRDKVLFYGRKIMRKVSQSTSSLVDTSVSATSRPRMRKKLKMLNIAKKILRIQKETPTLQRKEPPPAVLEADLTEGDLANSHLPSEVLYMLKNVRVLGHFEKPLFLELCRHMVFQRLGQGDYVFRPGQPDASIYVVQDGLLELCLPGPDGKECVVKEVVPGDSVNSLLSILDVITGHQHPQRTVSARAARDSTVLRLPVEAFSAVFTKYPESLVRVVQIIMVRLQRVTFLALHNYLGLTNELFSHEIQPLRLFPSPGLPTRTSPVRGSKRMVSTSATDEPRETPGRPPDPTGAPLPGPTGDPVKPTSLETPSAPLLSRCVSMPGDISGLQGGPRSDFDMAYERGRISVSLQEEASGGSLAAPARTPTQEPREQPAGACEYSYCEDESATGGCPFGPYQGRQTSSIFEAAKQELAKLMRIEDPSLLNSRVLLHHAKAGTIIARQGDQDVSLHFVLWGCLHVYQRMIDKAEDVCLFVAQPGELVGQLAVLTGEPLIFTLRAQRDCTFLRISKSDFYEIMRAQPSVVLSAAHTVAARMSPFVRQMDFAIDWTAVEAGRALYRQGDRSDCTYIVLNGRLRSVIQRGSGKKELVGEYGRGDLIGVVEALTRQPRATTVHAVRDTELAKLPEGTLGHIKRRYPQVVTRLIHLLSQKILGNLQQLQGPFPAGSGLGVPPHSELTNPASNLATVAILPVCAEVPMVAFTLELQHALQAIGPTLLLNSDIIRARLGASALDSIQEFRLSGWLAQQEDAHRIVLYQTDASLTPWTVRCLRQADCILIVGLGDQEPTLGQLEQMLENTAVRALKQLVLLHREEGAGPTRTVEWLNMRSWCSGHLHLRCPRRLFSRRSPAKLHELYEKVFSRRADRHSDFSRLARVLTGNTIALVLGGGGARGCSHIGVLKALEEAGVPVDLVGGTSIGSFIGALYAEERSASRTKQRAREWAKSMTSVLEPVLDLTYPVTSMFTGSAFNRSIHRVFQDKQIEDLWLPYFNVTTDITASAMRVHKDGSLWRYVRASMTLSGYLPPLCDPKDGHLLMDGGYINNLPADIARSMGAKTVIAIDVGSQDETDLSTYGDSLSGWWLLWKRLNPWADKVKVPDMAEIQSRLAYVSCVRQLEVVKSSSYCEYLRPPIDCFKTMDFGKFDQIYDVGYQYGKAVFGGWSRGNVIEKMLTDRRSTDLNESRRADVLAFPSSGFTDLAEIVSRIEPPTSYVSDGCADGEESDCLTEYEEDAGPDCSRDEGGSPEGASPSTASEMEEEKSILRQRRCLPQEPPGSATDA

CCOc1ccc(-c2cc(OC)cc(C(=O)OC(C)C)n2)cc1 [NG-497]
did not observe inhibition: inhibition of PNPLA6 [1] | inhibition of PNPLA7 [2] | inhibition of PNPLA8 [3] | inhibition of PNPLA9 [4]
